# Data as given in patent US20250213519A1, “SYNERGY FOR INCREASING INSULIN SENSITIVITY” (Board of Supervisors of Louisiana State University and …, priority 2022, published 2025).
# Like-named read-outs stand apart in the source and are kept apart here.
# Assays:
# [1] = test system: primary islets; settings: up to 100 μm, 24 h; cited from earlier work
# [2] = test system: human adipocytes; assay: Protein levels by Western blotting in human adipocytes treated for seven days; format: cell-based; settings: for SIRT3 protein levels, NR combined with myricetin: 8 μM NR + 50 nM myricetin vs NR or myr alone
# From the text: Since we saw an increase in SIRT3 mRNA and myricetin upregulates SIRT3 protein in adipocytes from mice, we analyzed levels of SIRT3 protein in human adipocytes treated for seven days with the same concentrations of compounds. Protein was isolated from adipocytes and analyzed on immunoblots probed with antibodies that specifically bind human SIRT3 or human β-actin. […] However, adding myr to NR+BC boosted SIRT3 protein by 37%.
# Human adipose-derived stem cells from overweight and obese female donors were purchased from LaCell, LLC (New Orleans, Louisiana) or isolated from lipoaspirate waste donated post-surgery from women with obesity using methods as previously described (31). Cells were seeded, maintained until two days after becoming confluent, and differentiated into adipocytes in the presence of rosiglitazone and isobutylmethylxanthine for five days as previously described (25). Treatments of adipocytes with 8 μM NR and 2 μM carotenoid, dissolved in DMSO at 1000×, started 5 days after the differentiation period and lasted for seven days in adipocyte maintenance medium with heat inactivated serum, before RNA and protein were isolated from adipocyte cultures.
# Whole cell protein was isolated from differentiated cell cultures after treatment for seven days, lysed with RIPA buffer containing protease and phosphatase inhibitors, and pushed through a 20-gauge needle four times to disrupt organelles. Fifty micrograms of total cell protein were loaded per lane and resolved in 7.5% SDS-PAGE gels, transferred to nitrocellulose membranes, and probed overnight at 4° C. with specific primary antibodies. Anti-rabbit or -mouse secondary antibodies conjugated to horseradish peroxidase were used for detection of target proteins. Image J was used to quantify protein bands on Western blots. To adjust for variations in total protein loaded in each lane, β-actin was used.
# [3] = Myricetin toxicity in mice; format: in vivo; settings: converted for human
# [4] = cited from earlier work; for solubility in an acidic solution: acetic acid buffered
# [5] = test system: PPARg P-serine 273; assay: Immunoblot of PPARg phosphorylation at serine 273; format: cell-based, human; settings: 50 nM myricetin + 8 μM NR + 2 μM BC, 7 days
# Method: Phosphorylation of PPARg by CDK5 at serine-273 is an important mechanism for inhibition of target genes for insulin sensitivity^7. Inhibitors of CDK5 have potential as diabetes drugs^8. Several studies have provided that myricetin is a CDK5 inhibitor and has insulin sensitizing characteristics that make it a potential therapeutic for diabetes^9,10. We previously analyzed NRBC for effects on PPARg phosphorylation at serine 273. Human adipocytes were treated with 8 μM NR and 2 μM BC for three, five and seven days, and protein was isolated and analyzed on immunoblots probed with an antibody specific for human P-serine 273 PPARg. The same blot was stripped and re-probed with an antibody for total human PPARg. Values in the histogram represent (P-ser 273 PPARg)/(total PPARg). […] The effect increases over time.
# The experiment for analysis of phosphorylation of PPARg at P-273 was repeated to determine whether adding myricetin to NRBC can further inhibit PPARg P-273 phosphorylation. Cells were treated for seven days with 8 μM NR, 2 μM BC and 50 nM myricetin. Protein was analyzed on immunoblots probed with the same antibodies.
# [6] = Estimated human Cmax of myricetin by conversion from rats; settings: for Cmax: human, oral
# [7] = mice; cited from earlier work
# [8] = cited from earlier work
# [9] = Pharmacokinetics of myricetin in rats; format: in vivo; settings: plasma, po, from Table 1 (rat), converted
# [10] = test system: cytochrome P450 and drug efflux pumps like P-glycoprotein; settings: enhances availability of co-administered tamoxifen and losartan in rats; cited from earlier work
# [11] = target: CDK5 (Homo sapiens, UniProt Q00535); settings: cited from earlier work
# [12] = single dose injection; cited from earlier work
# [13] = test system: rat islets; settings: rat islets incubated in high glucose; cited from earlier work
# [14] = oral administration, high fat diet; cited from earlier work
# [15] = test system: human adipocytes; assay: mRNA levels (qRT-PCR) in human adipocyte cultures treated for seven days; format: cell-based; settings: 50 nM myricetin alone, 7 days
# [16] = 0.12% myricetin in high fat and sucrose diet; cited from earlier work
# [17] = rats orally administered 50 mg/kg and 100 mg/kg
# CDK5, sequence (Q00535 whole entry, species assumed): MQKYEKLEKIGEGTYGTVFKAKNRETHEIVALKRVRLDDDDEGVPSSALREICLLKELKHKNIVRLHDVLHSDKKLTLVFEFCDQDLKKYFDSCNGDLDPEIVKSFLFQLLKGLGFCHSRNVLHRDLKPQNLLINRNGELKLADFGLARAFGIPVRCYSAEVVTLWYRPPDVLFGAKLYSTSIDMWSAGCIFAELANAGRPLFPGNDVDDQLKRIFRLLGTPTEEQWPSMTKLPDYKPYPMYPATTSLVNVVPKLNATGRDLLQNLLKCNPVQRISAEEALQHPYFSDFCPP
# CDK5, sequence (Q15078 whole entry partner, species assumed): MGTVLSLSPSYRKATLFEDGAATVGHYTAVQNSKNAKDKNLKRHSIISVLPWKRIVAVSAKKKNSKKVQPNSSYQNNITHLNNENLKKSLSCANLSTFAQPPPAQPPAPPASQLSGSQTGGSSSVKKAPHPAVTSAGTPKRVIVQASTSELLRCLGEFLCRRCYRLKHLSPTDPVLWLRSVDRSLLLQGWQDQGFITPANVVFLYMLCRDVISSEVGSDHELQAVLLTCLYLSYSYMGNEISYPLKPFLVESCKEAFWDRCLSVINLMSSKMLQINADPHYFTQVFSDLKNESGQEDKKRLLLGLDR
structure (smiles),measurement,setting,value
O=c1c(O)c(-c2cc(O)c(O)c(O)c2)oc2cc(O)cc(O)c12 [myricetin],viability of primary islets,[1],no loss of viability
same,"SIRT3 protein levels, NR combined with myricetin",[2],does not increase SIRT3 protein levels
same,"SIRT3 protein levels, NR combined with myricetin",[2]; listed as Myricetin,did not increase SIRT3 protein levels
same,"SIRT3 protein levels, single agent","[2]; 8 μM NR or 50 nM myricetin, 7 days",upregulate SIRT3 protein levels
same,increase in SIRT3 protein,[2]; myr added to NR+BC,37%
same,increase in SIRT3 mRNA and protein,[2]; myr added to NRBC (summary),two-fold
same,"Tox, human equivalent",[3],11 g
same,solubility in an acidic solution,[4]; pH 1,777 µg/mL
same,solubility in an acidic solution,[4]; pH 2,576 µg/mL
same,solubility in an acidic solution,[4]; pH 3,150 µg/mL
same,aqueous solubility,[4]; aqueous,17 µg/mL
same,"PPARg P-273 phosphorylation, myricetin added to NRBC",[5],did not further decrease PPARg P-273 relative to NRBC
same,"PPARg P-273 phosphorylation, myricetin added to NRBC",[5]; listed as Myricetin,did not alter phosphorylation of PPARg at serine-273
same,Human Cmax,"[6]; 564 mg dose, conversion from 50 mg/kg in rats",39.4 µM
same,Cmax,[6]; 10 mg,~0.4 µM
same,Cmax,[6]; 564 mg,~2.5 µM
same,Tox,[7],1000 mg/kg/day
same,AUC0-∞,"[8]; rat, i.v., 0.5 mg/kg",1452.85 ± 170.30 ng·h/mL
same,CL,"[8]; rat, i.v., 0.5 mg/kg",5.83 ± 0.83 mL/min/kg
same,Cmax,"[8]; rat, i.v., 0.5 mg/kg",2232.16 ± 856.36 ng/mL
same,Tmax,"[8]; rat, i.v., 0.5 mg/kg",0 (pre-dose) h
same,Vd,"[8]; rat, i.v., 0.5 mg/kg",4.12 ± 1.52 L/kg
same,t1/2,"[8]; rat, i.v., 0.5 mg/kg",6.99 ± 1.94 h
same,AUC0-∞,"[8]; rat, p.o., 50 mg/kg","13,731.13 ± 5,574.58 ng · h/mL"
same,Bioavailability,"[8]; rat, p.o., 50 mg/kg",9.62%
same,Cmax,"[8]; rat, p.o., 50 mg/kg",1488.75 ± 200.78 ng/mL
same,Tmax,"[8]; rat, p.o., 50 mg/kg",6.4 ± 0.89 h
same,t1/2,"[8]; rat, p.o., 50 mg/kg",2.78 ± 0.81 h
same,AUC0-∞,"[8]; rat, p.o., 100 mg/kg","28,081.62 ± 10,982.45 ng · h/mL"
same,Bioavailability,"[8]; rat, p.o., 100 mg/kg",9.74%
same,Cmax,"[8]; rat, p.o., 100 mg/kg",2611.76 ± 1019.58 ng/mL
same,Tmax,"[8]; rat, p.o., 100 mg/kg",5.2 ± 3.03 h
same,t1/2,"[8]; rat, p.o., 100 mg/kg",3.79 ± 0.75 h
same,oral bioavailability,[8]; [17],approximately 10%
same,time to maximal concentration (Tmax),[8]; [17],6.5 h
same,Cmax,[9]; first value (50 mg/kg p.o.),5 µM
same,Cmax,[9]; second value (100 mg/kg p.o.),8.7 µM
same,inhibition of cytochrome P450 and efflux pumps,[10],inhibits cytochrome P450 and drug efflux pumps like P-glycoprotein
same,CDK5 kinase activity inhibition EC50 (in words),[11],low micromolar range
same,EC50,[11]; read-out: CDK5 inhibition EC50,71 µM
same,blood glucose levels,[12],maintained reduced blood glucose levels for eight hours
same,insulin release,[13],stimulated insulin release
same,fatty liver disease and circulating triglycerides,[14],improved fatty liver disease and lowered circulating triglycerides
same,SIRT1 or SIRT3 mRNA levels,[15],no effect
same,"adiposity, circulating glucose and insulin",[16],"reductions in adiposity, and circulating glucose and insulin"
